Measurements: article PMC8592230 (Food Chemistry, 2021)

How the values were obtained:
[1] = target: T1, SARS-CoV-2 3CL^pro (Severe acute respiratory syndrome coronavirus 2, UniProt P0DTD1); experiment: Initial FRET screening for 3CL^pro inhibition at 10 µM polyphenol; format: biochemical; details: 0.1 µM 3CL^pro, 16 µM FRET substrate, after 10 min
[2] = target: T1, SARS-CoV-2 3CL^pro; experiment: FRET dose-response 3CL^pro inhibition assay; format: biochemical
[3] = target: T1, SARS-CoV-2 3CL^pro; experiment: Surface plasmon resonance binding to immobilised 3CL^pro

Row | SMILES | inhibition of 3CL^pro [1] | IC50 [2] [µM] | SPR binding to immobilised 3CL^pro (in words) ([3]; SPR, up to 200 µM polyphenol, 25 °C) | Kd [3] [µM]
1 | COc1cc(C(=O)O)cc(OC)c1O [Syringic acid] | no inhibition at all | – | – | –
2 | Oc1ccc(/C=C/c2cc(O)cc(O)c2)cc1 [Resveratrol] | – | 16.9 | non-specific binding | –
3 | O=c1oc2c(O)c(O)cc3c(=O)oc4c(O)c(O)cc1c4c23 [Ellagic acid] | – | 11.8 | – | 311 ± 69
